Here are results for two compounds from ChEMBL document CHEMBL5360561, “Design, synthesis and biological evaluation of fluorinated selective estrogen receptor degraders (FSERDs) --- A promising strategy for advanced ER positive breast cancer” (Eur J Med Chem, 2023).

The source made the active and inactive calls. The rule behind the calls is not given here.

The nature of data set [1]: Toxicity in Sprague-Dawley rat uterus assessed as increase in uterine wet weight at 0.1 mg/kg, po for 2 days consecutively. The format is organism-based. The note with it: in vivo, 48 h, time 2 day.
Data set [2] has as its system MCF7. Put plainly: Antiproliferative activity against human MCF7 cells assessed as cell growth inhibition incubated for 5 days by MTT assay. The class given is functional, cell-based. Particulars: MCF7, 120 h. A general note: Formazan colour is commonly taken as a measure of viable cells.
The next data set deals with Ishikawa. The data set can be described thus: Antiproliferative activity against human Ishikawa cells assessed as cell growth inhibition at 20 uM incubated for 3 days by MTT assay. The format is functional. Particulars: 72 h, time 3 day.
Data set [3] concerns MCF7. Put plainly: Induction of ER degradation in human MCF7 cells at 10 uM incubated for 24 hrs by Western blot analysis. The class given is cell-based. On the technique in general: In western blotting, separated proteins are transferred to a membrane and probed.
Data set [4] has as its system MCF7. Put plainly: Induction of ER degradation in human MCF7 cells at 0.001 to 10 uM incubated for 24 hrs by Western blot analysis. The class given is cell-based. Particulars: dose 0.001-10 µM.
Data set [5] has as its system MCF7. The data set can be described thus: Induction of ER degradation in human MCF7 cells at 10 uM incubated for 24 hrs by DAPI staining based immunofluorescence analysis. The format is cell-based.
The test system of data set [6] is MCF7. The data set can be described thus: Induction of ER degradation in Estradiol stimulated human MCF7 cells assessed as decrease in GREB1 mRNA expression level at 1 to 10 uM incubated for 24 hrs by RT-qPCR analysis. The class given is cell-based. The note with it: dose 1-10 µM. A general note: Real-time PCR tracks product formation cycle by cycle.
Data set [7] concerns MCF7. The data set can be described thus: Induction of ER degradation in Estradiol stimulated human MCF7 cells assessed as decrease in PGR gene expression level at 1 to 10 uM incubated for 24 hrs by RT-qPCR analysis. The class given is cell-based. The note with it: dose 1-10 µM.
Data set [8] relates to MCF7. The data set can be described thus: Induction of ER degradation in Estradiol stimulated human MCF7 cells assessed as decrease in TFF1 gene expression level at 1 to 10 uM incubated for 24 hrs by RT-qPCR analysis. The format is cell-based. The note with it: dose 1-10 µM.
The test system of data set [9] is MCF7. The data set can be described thus: Induction of ER degradation in human MCF7 cells transfected with ERE-luciferase plasmid assessed as decrease in estradiol induced ERE-luciferase activity by measuring luminescence at 10 uM incubated for 24 hrs by luciferase assay. The format is cell-based.
For data set [10], the system named is MCF7. Put plainly: Induction of cell cycle arrest in human MCF7 cells assessed as accumulation at G0/G1 phase at 10 uM incubated for 24 hrs by flow cytometry (Rvb= 46.53 +/- 0.44%). The format is functional.
The nature of data set [11]: Half life in ICR mouse at 3 mg/kg, iv and measured upto 24 hrs by LC-MS analysis. The class given is ADME, organism-based. The note with it: in vivo.
Data set [12] is described as follows: Tmax in ICR mouse at 3 mg/kg, iv and measured upto 24 hrs by LC-MS analysis. The format is ADME, organism-based. The note with it: in vivo.
Data set [13] in a line: Cmax in ICR mouse at 3 mg/kg, iv and measured upto 24 hrs by LC-MS analysis. The class given is ADME, organism-based. More on the design: dose 3 mg/kg, time < 24 hrs, route iv. The note with it: in vivo.
A short description of data set [14]: C0 in ICR mouse at 3 mg/kg, iv and measured upto 24 hrs by LC-MS analysis. The class given is ADME, organism-based. The note with it: in vivo.
Data set [15] is described as follows: AUCt in ICR mouse at 3 mg/kg, iv and measured upto 24 hrs by LC-MS analysis. The note with it: in vivo. The format is ADME, organism-based. On the set-up: dose 3 mg/kg, time < 24 hrs, route iv.
Data set [16] can be described thus: AUC (0 to infinity) in ICR mouse at 3 mg/kg, iv and measured upto 24 hrs by LC-MS analysis. The class given is ADME, organism-based. More on the design: time < 24 hrs, dose 3 mg/kg, route iv. Particulars: in vivo.
Data set [17] in a line: Apparent volume of distribution in ICR mouse at 3 mg/kg, iv and measured upto 24 hrs by LC-MS analysis. The note with it: in vivo, read-out: Vz. The format is ADME, organism-based.
A short description of data set [18]: Clearance in ICR mouse at 3 mg/kg, iv and measured upto 24 hrs by LC-MS analysis. The class given is ADME, organism-based. Particulars: in vivo.
Data set [19] can be described thus: MRT(t) in ICR mouse at 3 mg/kg, iv and measured upto 24 hrs by LC-MS analysis. The class given is ADME, organism-based. Particulars: in vivo.
Data set [20] is described as follows: MRT (0 to infinity) in ICR mouse at 3 mg/kg, iv and measured upto 24 hrs by LC-MS analysis. Particulars: in vivo. The format is ADME, organism-based.
Data set [21] is described as follows: Half life in ICR mouse at 30 mg/kg, po and measured upto 24 hrs by LC-MS analysis. The class given is ADME, organism-based. Particulars: in vivo.
A short description of data set [22]: Tmax in ICR mouse at 30 mg/kg, po and measured upto 24 hrs by LC-MS analysis. The class given is ADME, organism-based. The note with it: in vivo.
Data set [23] can be described thus: Cmax in ICR mouse at 30 mg/kg, po and measured upto 24 hrs by LC-MS analysis. The class given is ADME, organism-based. More on the design: time < 24 hrs, dose 30 mg/kg, route po. Particulars: in vivo.
Data set [24] is described as follows: AUCt in ICR mouse at 30 mg/kg, po and measured upto 24 hrs by LC-MS analysis. The class given is ADME, organism-based. More on the design: time < 24 hrs, dose 30 mg/kg, route po. Particulars: in vivo.
Data set [25] in a line: AUC (0 to infinity) in ICR mouse at 30 mg/kg, po and measured upto 24 hrs by LC-MS analysis. The format is ADME, organism-based. On the set-up: time < 24 hrs, dose 30 mg/kg, route po. Particulars: in vivo.
A short description of data set [26]: MRT(t) in ICR mouse at 30 mg/kg, po and measured upto 24 hrs by LC-MS analysis. The class given is ADME, organism-based. Particulars: in vivo.
A short description of data set [27]: MRT (0 to infinity) in ICR mouse at 30 mg/kg, po and measured upto 24 hrs by LC-MS analysis. The class given is ADME, organism-based. Particulars: in vivo.
Data set [28] is described as follows: Oral bioavailability in ICR mouse at 30 mg/kg and measured upto 24 hrs by LC-MS analysis. The class given is ADME, organism-based. The note with it: in vivo.
Data set [29] relates to MCF7. Put plainly: Antitumor activity against human MCF7 cells xenografted in nude mouse assessed as tumor growth inhibition at 30 mg/kg,po for 30 days daily. The class given is functional, organism-based. The note with it: time 30.0 day.
A short description of data set [30]: Toxicity in mouse xenografted with human MCF7 cells assessed as body weight loss at 30 mg/kg,po for 30 days daily. The class given is organism-based. The note with it: in vivo, 720 h, time 30 day.
Data set [31] is described as follows: Toxicity in mouse xenografted with human MCF7 cells assessed as morphological changes in heart at 30 mg/kg,po for 30 days daily by Hematoxylin and eosin staining based microscopy. The class given is organism-based. The note with it: in vivo, 720 h, time 30 day.
The nature of data set [32]: Toxicity in mouse xenografted with human MCF7 cells assessed as morphological changes in liver at 30 mg/kg,po for 30 days daily by Hematoxylin and eosin staining based microscopy. The format is organism-based. The note with it: in vivo, 720 h, time 30 day.
A short description of data set [33]: Toxicity in mouse xenografted with human MCF7 cells assessed as morphological changes in spleen at 30 mg/kg,po for 30 days daily by Hematoxylin and eosin staining based microscopy. The format is organism-based. Particulars: in vivo, 720 h, time 30 day.
The nature of data set [34]: Toxicity in mouse xenografted with human MCF7 cells assessed as morphological changes in kidney at 30 mg/kg,po for 30 days daily by Hematoxylin and eosin staining based microscopy. The format is organism-based. Particulars: in vivo, 720 h, time 30 day.
The test system of data set [35] is MCF7. Put plainly: Antitumor activity against human MCF7 cells xenografted in nude mouse assessed as reduction in Ki67 expression at 30 mg/kg,po for 30 days daily by immunohistochemical analysis. The class given is functional, organism-based. Particulars: time 30.0 day.
Data set [36] relates to Mus musculus. The data set can be described thus: In vivo ER degradation in mouse xenografted with human MCF7 cells assessed as reduction in ER expression level in tumor at 30 mg/kg,po for 30 days daily by […]. The class given is functional, organism-based. Particulars: time 30.0 day.
In data set [37] the test system is Mus musculus. The data set can be described thus: In vivo ER degradation in mouse xenografted with human MCF7 cells assessed as reduction in PR expression level in tumor at 30 mg/kg,po for 30 days daily by […]. The format is functional, organism-based. Particulars: time 30.0 day.
A short description of data set [38]: Toxicity in Sprague-Dawley rat uterus assessed as change in uterine wet weight at 30 mg/kg, po for 2 days consecutively. The format is organism-based. The note with it: in vivo, 48 h, time 2 day.

As for `C[C@]12CC[C@@H]3c4ccc(O)cc4CC[C@H]3[C@@H]1CC[C@@H]2O` [ESTRADIOL], the Activity entry in [1] was “Toxic”.

Turning to `Cc1cc(F)cc(C)c1C(=O)c1sc2cc(F)ccc2c1Oc1ccc(/C=C/C(=O)O)cc1`, the IC50 with MCF7 [2] was determined as 55 nM. For the same compound, in the data set with Ishikawa, the inhibition at 20 µM is 12%. Further, the outcome with MCF7 [3], in the data set with MCF7 [5], with MCF7 [6], in the data set with MCF7 [7], in the data set on MCF7 [8] and with MCF7 [9] was Active. The outcome in the data set with MCF7 [29], in the data set with MCF7 [35], in the data set with Mus musculus [36] and with Mus musculus [37] was Active. Besides, the Activity result in the data set on MCF7 [4] is “Dose-Dependent Effect”; with MCF7 [10] it was 56.1%; in data set [30] it was “Non-Toxic”; in data set [31], “Non-Toxic”; in data set [32] it was “Non-Toxic”; in data set [33] it was “Non-Toxic”. Moreover, the Activity result in data set [34] and in data set [38] was “Non-Toxic” each time. Also, the half-life in [11] was 73.8 min; in data set [21], 188 min. The results for the time of peak concentration (Tmax) in data set [12] and in [22] were 1.8 min and 20 min, respectively. Besides, the peak concentration (Cmax) was found to be 4500 ng/mL in data set [13] and 5530 ng/mL in data set [23]. For the same compound, the C0 at 24 h in data set [14] came out at 4840 ng/mL. The area under the curve AUC(0-t) at 24 h in [15] worked out at 4610 ng·h/mL; in [24], 26600 ng·h/mL. Further, the area under the curve AUC(0-inf) in [16] was 4640 ng·h/mL; in data set [25], 29200 ng·h/mL. In data set [17], the Vd came out at 1.13 L/kg. This compound also had a clearance in data set [18] of 11 mL/min/kg. The figures for the mean residence time (MRT last) at 24 h in [19] and in data set [26] were 58.7 min and 4.39 h, respectively. For the same compound, the mean residence time (MRT inf) is 1.04 h in data set [20] and 6.06 h in data set [27]. In addition, the bioavailability in data set [28] was 62.9%.

As a reminder, the IC50 is the point on the concentration scale where inhibition reaches its midpoint. By inhibition is commonly meant how much of the control response was suppressed. Usually half-life stands for how long it takes for the measured level to halve. Read a low half-life as fast loss. A word on the Tmax: it is the time from dosing to the highest level. One may read the Cmax as the maximum level reached in the sampled fluid or tissue. A word on the AUC(0-t): it is the area under the concentration-time curve up to a stated or last time point. What is called AUC(0-inf) is the area under the concentration-time curve extrapolated to infinity. The low end stands for low exposure, the high end for high exposure. The term clearance denotes a measure of how efficiently the substance is removed, as volume per time. Usually MRT last stands for a mean duration of stay, worked out from the concentration-time curve. A word on the MRT inf: it is the average time that molecules of a dose stay in the body. In general, bioavailability refers to dose-corrected exposure relative to a reference, in per cent. Low readings indicate little systemic uptake, high ones much systemic uptake.
